# From ChEMBL document CHEMBL1132044, “Synthesis and in vitro and in vivo evaluation of the 2-(6'methoxy-3',4'-dihydro-1'-naphtyl)-4H-3,1-benzoxazin-4-one as a new potent substrate inhibitor of human leukocyte elastase” (Bioorg Med Chem Lett, 1999)
# How the values were obtained:
# [1] = target: T1, Neutrophil elastase (Homo sapiens) (UniProt P08246); experiment: In vitro inhibitory activity against human leukocyte elastase (HLE), at a concentration of 75 uM
# T1 sequence (whole entry): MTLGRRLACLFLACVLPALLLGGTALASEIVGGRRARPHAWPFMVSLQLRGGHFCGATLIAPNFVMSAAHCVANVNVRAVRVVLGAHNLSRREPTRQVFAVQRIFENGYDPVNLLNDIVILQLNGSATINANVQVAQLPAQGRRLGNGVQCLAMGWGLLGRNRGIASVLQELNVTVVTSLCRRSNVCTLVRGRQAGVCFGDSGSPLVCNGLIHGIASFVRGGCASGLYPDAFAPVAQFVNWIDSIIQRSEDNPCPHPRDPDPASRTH
# [2] = target: T1, Neutrophil elastase (Homo sapiens); experiment: In vitro inhibitory activity against human leukocyte elastase (HLE), at a concentration of 1.5 uM
# [3] = target: T1, Neutrophil elastase (Homo sapiens); experiment: In vitro inhibitory activity against human leukocyte elastase (HLE), at a concentration of 15 uM
# Neutrophil elastase = target: T2, Neutrophil elastase (Homo sapiens, UniProt P08246); experiment: In vitro inhibitory activity against human leukocyte elastase (HLE)
# T2 sequence (P08246 whole entry): T1 sequence (whole entry)
inhibition [1] [%],inhibition [2] [%],inhibition [3] [%],IC50 (Neutrophil elastase) [µM],SMILES
87,23,64.5,7,O=c1oc(/C2=C/CCCCCC2)nc2ccccc12
20.8,6,12,–,CCOC(=O)C1CCC(c2nc3ccccc3c(=O)o2)=CC1C (centres undefined)
76,16.2,45.7,17,O=c1oc(-c2ccccc2)nc2ccccc12
99.6,69.9,92.8,0.61,COc1ccc2c(c1)CCC=C2c1nc2ccccc2c(=O)o1
88.7,22.6,65,5.5,O=c1oc(-c2ccco2)nc2ccccc12
